The subject of data set [1] is Petit Mal. Kind of data set: Cardiazol shock test. Particulars: species not given. It is filed as in vivo. The text has this:
(§1) In general, the majority of the available antiepileptic drugs are active against either Grand Mal or Petit Mal epilepsy but not against both forms.
(§2) As mentioned above, the compounds according to the present invention show interesting activity against both Grand Mal and Petit Mal forms of epilepsy. This activity is indicated respectively by the electro shock test and the Cardiazol shock test.

Data set [2] deals with Grand Mal. Kind of data set: Electro shock test, rat. It is filed as in vivo.
From the text: as §1, §2

Data set [3] has as its system Grand Mal. Kind of data set: Electro shock test, mouse. In kind it is in vivo.
From the text: as §1, §2

The format of data set [4] is in vivo. Conditions: up to 500 mg/kg. The text has this: It will be noted that the ratio of ED50 /LD50 for the compounds according to the invention is particularly favourable.

This passage reports ED50 and sedative activity results from patent publication US3963706A, “Sulphamoylphenyl-imidazolidinones” (Ed. Geistlich Sohne A.G. fur Chemische Industrie, priority 1972, dated 1976).

As for `NS(=O)(=O)c1ccc(N2C(=O)CN(c3ccccc3)C2=O)c(Cl)c1` [Example 8, 1-Phenyl-3-(2-chloro-4-sulphamoylphenyl)-hydantoin], the ED50 in data set [1] came out at 100 mg/kg; in data set [2] it was 10 mg/kg; in data set [3], 5 mg/kg.
Regarding `NS(=O)(=O)c1ccc(N2CN(c3ccccc3)CC2=O)c(F)c1` [Example 2, 1-Phenyl-3-(2-fluoro-4-sulphamoylphenyl)-imidazolidin-4-one], the ED50 in data set [1] worked out at 50 mg/kg; in data set [2] it was 10 mg/kg; in data set [3], 10 mg/kg.
As for `NS(=O)(=O)c1ccc(N2CN(c3ccccc3)CC2=O)c(Br)c1` [Example 5, 1-Phenyl-3-(2-bromo-4-sulphamoylphenyl)imidazolidin-4-one], the median effective dose (ED50) is 50 mg/kg in data set [1], 5 to 10 mg/kg in data set [2] and 5 mg/kg in data set [3].
For the compound `NS(=O)(=O)c1ccc(N2CN(C3CCCCC3)CC2=O)c(Cl)c1` [Example 19, 1-Cyclohexyl-3-(2-chloro-4-sulphamoylphenyl)-imidazolidin-4-one], the ED50 was 200 mg/kg in data set [1], 25 mg/kg in data set [2] and 10 mg/kg in data set [3].
For `NS(=O)(=O)c1ccc(N2CN(c3ccccc3)CC2=O)c(Cl)c1` [Example 3, 1-Phenyl-3-(2-Chloro-4-sulphamoylphenyl)-imidazolidin-4-one], the results for the ED50 in data set [1], in data set [2] and in data set [3] were 50 mg/kg, 5 mg/kg and 1 mg/kg, respectively. Besides, the sedative activity entry in data set [4] was “virtually no sedative activity”.
Regarding `CC1C(=O)N(c2ccc(S(N)(=O)=O)cc2Cl)CN1c1ccccc1` (stereo not drawn) [Example 18, 5-Methyl-1-phenyl-3-(2-chloro-4-sulphamoylphenyl)-imidazolidin-4-one], the ED50 amounted to 50 mg/kg in data set [1] and 10 mg/kg in data set [2].

The term ED50 denotes the dose that gives a 50% effect, or the effect in half of the subjects. Lower therefore signals an effect at a small dose.
